Measurements reported in patent US20260078120A1, “SUBSTITUTED PYRIDOPYRIMIDINONES” (MIRATI THERAPEUTICS, INC., priority 2022, published 2026).

Columns and labels:
[1] = system: T47D (PI3Kα H1047R mutant) cells; experiment: CellTiter-Glo 2.0 luminescent cell viability assay, 72 hours, T47D cells; type: cell-based; details: Homo sapiens, T47D, 72 h, T47D (PI3Kα H1047R mutant) cells, CellTiter-Glo, approximately 72 hours; read-out: T47D (H1047R mutant) Viability IC50
Outline: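 Viability was measured by CellTiter-Glo 2.0 luminescence after approximately 72 h of compound exposure at 37° C. Plating was 1000 cells per well the day before dosing, with ten 1:4 dilutions from a 10 µM top concentration. Values as percent of vehicle were fitted by variable-slope log(inhibitor) regression to give IC50.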

[2] = system: SKBR3 (PI3Kα wild type) cells; experiment: CellTiter-Glo 2.0 luminescent cell viability assay, 72 hours, SKBR3 cells; type: cell-based; details: Homo sapiens, SK-BR-3, 72 h, SKBR3 (PI3Kα wild type) cells, CellTiter-Glo, approximately 72 hours; read-out: SKBR3 (WT) Viability IC50
Outline: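 Viability measured via CTG luminescence following roughly 72 hours of compound exposure at 37° C. Dosing used a 10 um starting concentration diluted 1:4 over 10 points; percent-of-vehicle data fitted with a variable-slope four-parameter model for IC50.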

IC50 [1] [nM] | IC50 [2] [µM] | Structure (SMILES)
9620 | > 10 | Cc1cc(C(C)Nc2ccccc2C(=O)O)c2nc(-c3ccc(F)cc3)cc(=O)n2c1 (stereo not shown) [Example 11-391, 2-((1-(2-(4-fluorophenyl)-7-methyl-4-oxo-4H-pyrido[1,2-a]pyrimidin-9-yl)ethyl)amino)benzoic acid]
1650 | > 10 | Cc1cc(C(C)Nc2ccccc2C(=O)O)c2nc(N3CCCCC3)c(C3CC3)c(=O)n2c1 (stereo not shown) [Example 11-413, 2-((1-(3-cyclopropyl-7-methyl-4-oxo-2-(piperidin-1-yl)-4H-pyrido[1,2-a]pyrimidin-9-yl)ethyl)amino)benzoic acid]
721 | > 10 | Cc1cc([C@@H](C)Nc2ccccc2C(=O)O)c2nc(N3Cc4ccccc4C3CO)c(C#N)c(=O)n2c1 (stereo partly drawn) [Example 11-288, 2-(((1R)-1-(3-cyano-2-(1-(hydroxymethyl)isoindolin-2-yl)-7-methyl-4-oxo-4H-pyrido[1,2-a]pyrimidin-9-yl)ethyl)amino)benzoic acid]
590 | > 10 | Cc1cc([C@@H](C)Nc2ccccc2C(=O)O)c2nc(NCC3CCOC3)c(C#N)c(=O)n2c1 (stereo partly drawn) [Example 11-194, 2-(((1R)-1-(3-cyano-7-methyl-4-oxo-2-(((tetrahydrofuran-3-yl)methyl)amino)-4H-pyrido[1,2-a]pyrimidin-9-yl)ethyl)amino)benzoic acid]
187 | 4.55 | Cc1cc([C@@H](C)Nc2ccccc2C(=O)O)c2nc(N3CCN(c4ccc(C(F)(F)F)cc4C#N)C[C@H]3C)c(C)c(=O)n2c1 [Example 11-79, 2-(((R)-1-(2-((R)-4-(2-cyano-4-(trifluoromethyl)phenyl)-2-methylpiperazin-1-yl)-3,7-dimethyl-4-oxo-4H-pyrido[1,2-a]pyrimidin-9-yl)ethyl)amino)benzoic acid]
5460 | > 10 | CC(=O)N1CCC(c2cc(=O)n3cc(C)cc(C(C)Nc4ccccc4C(=O)O)c3n2)CC1 (stereo not shown) [Example 11-381, 2-((1-(2-(1-acetylpiperidin-4-yl)-7-methyl-4-oxo-4H-pyrido[1,2-a]pyrimidin-9-yl)ethyl)amino)benzoic acid]
158 | > 10 | Cc1cc([C@@H](C)Nc2ccccc2C(=O)O)c2nc(N3CC[C@H](C)C(F)(F)C3)c(C)c(=O)n2c1 [Example 11-60, 2-(((R)-1-(2-((S)-3,3-difluoro-4-methylpiperidin-1-yl)-3,7-dimethyl-4-oxo-4H-pyrido[1,2-a]pyrimidin-9-yl)ethyl)amino)benzoic acid]
1980 | > 10 | Cc1ccc(C#N)c(N2CCN(c3nc4c([C@@H](C)Nc5ccccc5C(=O)O)cc(C)cn4c(=O)c3C)[C@H](C)C2)c1 [Example 11-74, 2-(((R)-1-(2-((R)-4-(2-cyano-5-methylphenyl)-2-methylpiperazin-1-yl)-3,7-dimethyl-4-oxo-4H-pyrido[1,2-a]pyrimidin-9-yl)ethyl)amino)benzoic acid]
274 | > 10 | Cc1cc([C@@H](C)Nc2ccccc2C(=O)O)c2nc(N3CCOCC3)c(C#N)c(=O)n2c1 [Example 11-318, (R)-2-((1-(3-cyano-7-methyl-2-morpholino-4-oxo-4H-pyrido[1,2-a]pyrimidin-9-yl)ethyl)amino)benzoic acid]
485 | > 10 | Cc1cc([C@@H](C)Nc2ccccc2C(=O)O)c2nc(N[C@H](C)C3CC3)c(C#N)c(=O)n2c1 [Example 11-165, 2-(((R)-1-(3-cyano-2-(((R)-1-cyclopropylethyl)amino)-7-methyl-4-oxo-4H-pyrido[1,2-a]pyrimidin-9-yl)ethyl)amino)benzoic acid]
137 | > 10 | Cc1cc([C@@H](C)Nc2ccccc2C(=O)O)c2nc(N3CC(C(F)(F)F)C3)c(C)c(=O)n2c1 [Example 11-107, (R)-2-((1-(3,7-dimethyl-4-oxo-2-(3-(trifluoromethyl)azetidin-1-yl)-4H-pyrido[1,2-a]pyrimidin-9-yl)ethyl)amino)benzoic acid]
227 | > 10 | Cc1c(N2CCC(F)(F)CC2)nc2c([C@@H](C)Nc3ccccc3C(=O)O)cc(C(F)F)cn2c1=O [Example 11-171, (R)-2-((1-(7-(difluoromethyl)-2-(4,4-difluoropiperidin-1-yl)-3-methyl-4-oxo-4H-pyrido[1,2-a]pyrimidin-9-yl)ethyl)amino)benzoic acid]
1370 | > 10 | Cc1cc(C(C)Nc2ccccc2C(=O)O)c2nc(N3Cc4ccccc4C3=O)c(C)c(=O)n2c1 (stereo not shown) [Example 11-362, 2-((1-(3,7-dimethyl-4-oxo-2-(1-oxoisoindolin-2-yl)-4H-pyrido[1,2-a]pyrimidin-9-yl)ethyl)amino)benzoic acid]
350 | > 10 | CO[C@@H]1CN(c2nc3c([C@@H](C)Nc4ccccc4C(=O)O)cc(C)cn3c(=O)c2C)CC1(F)F [Example 11-117, 2-(((R)-1-(2-((R)-3,3-difluoro-4-methoxypyrrolidin-1-yl)-3,7-dimethyl-4-oxo-4H-pyrido[1,2-a]pyrimidin-9-yl)ethyl)amino)benzoic acid]
600 | > 10 | Cc1cc(C(C)Nc2ccc(F)cc2C(=O)O)c2nc(N3Cc4ccccc4C3)c(C)c(=O)n2c1 (stereo not shown) [Example 11-367, 5-fluoro-2-((1-(2-(isoindolin-2-yl)-3,7-dimethyl-4-oxo-4H-pyrido[1,2-a]pyrimidin-9-yl)ethyl)amino)benzoic acid]
> 10000 | > 10 | Cc1cc(C(C)Nc2ccccc2C(=O)O)c2nc(N(C)C)cc(=O)n2c1 (stereo not shown) [Example 11-408, 2-((1-(2-(dimethylamino)-7-methyl-4-oxo-4H-pyrido[1,2-a]pyrimidin-9-yl)ethyl)amino)benzoic acid]
172 | > 10 | Cc1cc([C@@H](C)Nc2ccc(Cl)nc2C(=O)O)c2nc(N3CCN(c4ccc(C#N)cc4C)CC3)c(C#N)c(=O)n2c1 [Example 11-132, (R)-6-chloro-3-((1-(3-cyano-2-(4-(4-cyano-2-methylphenyl)piperazin-1-yl)-7-methyl-4-oxo-4H-pyrido[1,2-a]pyrimidin-9-yl)ethyl)amino)picolinic acid]
192 | > 10 | Cc1cc([C@@H](C)Nc2ccccc2C(=O)O)c2nc(N3C[C@@H]4C[C@H]3CC4(F)F)c(C)c(=O)n2c1 [Example 11-231, 2-(((R)-1-(2-((1S,4S)-5,5-difluoro-2-azabicyclo[2.2.1]heptan-2-yl)-3,7-dimethyl-4-oxo-4H-pyrido[1,2-a]pyrimidin-9-yl)ethyl)amino)benzoic acid]
4020 | > 10 | Cc1cc(C(C)Nc2ccccc2C(=O)O)c2nc(-c3ccc(=O)n(C)c3)cc(=O)n2c1 (stereo not shown) [Example 11-383, 2-((1-(7-methyl-2-(1-methyl-6-oxo-1,6-dihydropyridin-3-yl)-4-oxo-4H-pyrido[1,2-a]pyrimidin-9-yl)ethyl)amino)benzoic acid]
361 | > 10 | Cc1cc([C@@H](C)Nc2ccccc2C(=O)O)c2nc(N3CCC[C@H](C(F)(F)F)C3)c(C#N)c(=O)n2c1 [Example 11-210, 2-(((R)-1-(3-cyano-7-methyl-4-oxo-2-((S)-3-(trifluoromethyl)piperidin-1-yl)-4H-pyrido[1,2-a]pyrimidin-9-yl)ethyl)amino)benzoic acid]
2800 | > 10 | Cc1cc([C@@H](C)Nc2ccccc2C(=O)O)c2nc(N3CC4(COC4)C3)c(C#N)c(=O)n2c1 [Example 11-321, (R)-2-((1-(3-cyano-7-methyl-4-oxo-2-(2-oxa-6-azaspiro[3.3]heptan-6-yl)-4H-pyrido[1,2-a]pyrimidin-9-yl)ethyl)amino)benzoic acid]
7900 | > 10 | Cc1cc([C@@H](C)Nc2ccccc2C(=O)O)c2nc(Cl)c(C#N)c(=O)n2c1 [Example 11-243, (R)-2-((1-(2-chloro-3-cyano-7-methyl-4-oxo-4H-pyrido[1,2-a]pyrimidin-9-yl)ethyl)amino)benzoic acid]
> 10000 | > 10 | Cc1cc([C@@H](C)OC(=O)c2nc(Cl)ccc2N)c2nc(N3CCCCC3)c(C#N)c(=O)n2c1 [Example 11-330, (R)-1-(3-cyano-7-methyl-4-oxo-2-(piperidin-1-yl)-4H-pyrido[1,2-a]pyrimidin-9-yl)ethyl 3-amino-6-chloropicolinate]
1570 | > 10 | Cc1ccc(C#N)c(N2CCN(c3nc4c([C@@H](C)Nc5ccccc5C(=O)O)cc(C)cn4c(=O)c3C)[C@@H](C)C2)c1 [Example 11-75, 2-(((R)-1-(2-((S)-4-(2-cyano-5-methylphenyl)-2-methylpiperazin-1-yl)-3,7-dimethyl-4-oxo-4H-pyrido[1,2-a]pyrimidin-9-yl)ethyl)amino)benzoic acid]
552 | > 10 | Cc1cc([C@@H](C)Nc2ccccc2C(=O)O)c2nc(N3CCN(c4ccc(C(F)(F)F)cc4C#N)C[C@@H]3C)c(C#N)c(=O)n2c1 [Example 11-77, 2-(((R)-1-(3-cyano-2-((S)-4-(2-cyano-4-(trifluoromethyl)phenyl)-2-methylpiperazin-1-yl)-7-methyl-4-oxo-4H-pyrido[1,2-a]pyrimidin-9-yl)ethyl)amino)benzoic acid]

Structure (SMILES) | IC50 [1] [nM] | IC50 [2] [µM]
Cc1cc([C@@H](C)Nc2ccccc2C(=O)O)c2nc(N3CC4CC(C3)C4(C)O)c(C)c(=O)n2c1 (stereo partly drawn) [Example 11-34, 2-(((1R)-1-(2-(6-hydroxy-6-methyl-3-azabicyclo[3.1.1]heptan-3-yl)-3,7-dimethyl-4-oxo-4H-pyrido[1,2-a]pyrimidin-9-yl)ethyl)amino)benzoic acid] | 215 | > 10
